Numbered stars: 1 amine (or outer) side, 2 acyl side, 3 side chain; on linkers, the order of the positions; unused ones are H or OH. Bridge positions count the residues as written; N and C are the ends. Square brackets hold non-standard residues; d marks the D form. Peptide text beside a SMILES is read from it. Trp(βS-Me,7-OMe) = COc1cccc2c([C@H](C)[C@H](N)C(=O)O)c[nH]c12; Trp(4-Cl) = N[C@@H](Cc1c[nH]c2cccc(Cl)c12)C(=O)O; Trp(7-CN) = N#Cc1cccc2c(C[C@H](N)C(=O)O)c[nH]c12; Trp(7-Cl) = N[C@@H](Cc1c[nH]c2c(Cl)cccc12)C(=O)O; Phe(3-COOH) = N[C@@H](Cc1cccc(C(=O)O)c1)C(=O)O; Phe(4-CONH2) = NC(=O)c1ccc(C[C@H](N)C(=O)O)cc1; Phe(4-COOH) = N[C@@H](Cc1ccc(C(=O)O)cc1)C(=O)O; Trp(7-aza) = N[C@@H](Cc1c[nH]c2ncccc12)C(=O)O; Pip(5R-OH) = O=C(O)[C@@H]1CC[C@@H](O)CN1; X1 = O=C([C@@H]1CC[C@H](N[*:1])C1)[*:2]; X31 = O=C(CN(CCc1nnco1)[*:1])[*:2]; Pip(4-aza) = O=C(O)[C@@H]1CNCCN1; 4Pal = N[C@@H](Cc1ccncc1)C(=O)O; NMeE = CN[C@@H](CCC(=O)O)C(=O)O; dHyp = O=C(O)[C@H]1C[C@H](O)CN1; Cit = NC(=O)NCCC[C@H](N)C(=O)O; αMeS = C[C@](N)(CO)C(=O)O; Nle = CCCC[C@H](N)C(=O)O; Sar = CNCC(=O)O
Assays:
[1] = target: T1, human TNFR1 extracellular domain (ECD) protein (Homo sapiens, UniProt P19438); test: SPR binding affinity to captured human TNFR1 ECD
T1 construct: HRV 3C protease cleavage site (C); 6His (C, cleaved yes); made in house; host or cells: Sf21 insect cells (baculovirus), secreted
T1 sequence (P19438 30-211): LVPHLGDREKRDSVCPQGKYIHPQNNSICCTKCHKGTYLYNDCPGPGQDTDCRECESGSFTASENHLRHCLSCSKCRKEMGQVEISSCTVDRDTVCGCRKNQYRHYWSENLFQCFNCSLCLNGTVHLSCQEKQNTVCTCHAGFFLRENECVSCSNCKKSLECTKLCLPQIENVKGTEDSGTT
How it was run: (§1)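 Peptides are tested against captured biotin-tagged human TNFR1 ECD, with parallel TNFR2 ECD binding to check selectivity. Buffer: 10 mM HEPES pH 7.4, 150 mM NaCl, 3 mM EDTA, 0.05% P20, 2% DMSO.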

human TNFR2 ECD protein = target: T2, human TNFR2 ECD protein (Homo sapiens, UniProt P20333); test: SPR off-target binding (selectivity) to human TNFR2 ECD
T2 construct: HRV 3C protease cleavage site (C); 6His (C, cleaved yes); made in house; host or cells: Sf21 insect cells (baculovirus), secreted
T2 sequence (P20333 23-257): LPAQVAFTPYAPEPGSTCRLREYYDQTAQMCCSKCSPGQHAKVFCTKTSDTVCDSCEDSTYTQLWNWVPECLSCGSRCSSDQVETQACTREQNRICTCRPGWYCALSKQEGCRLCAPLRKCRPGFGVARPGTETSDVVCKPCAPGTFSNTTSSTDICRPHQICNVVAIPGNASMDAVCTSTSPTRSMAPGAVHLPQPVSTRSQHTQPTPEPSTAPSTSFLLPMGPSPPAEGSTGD
How it was run: as §1

[2] = target: T3, TNFα-induced NF-κB signal transduction pathway (TNFR1 signaling) in THP-1 cells (Homo sapiens, UniProt P19438); test: THP-1 Lucia NF-κB reporter cell assay, inhibition of TNFα-induced NF-κB signaling; assay type: cell-based; settings: THP-1 NF-κB Lucia reporter cells, 10 ng/mL TNFα, 16-18 h, secreted luciferase; read-out: THP-1 IC50
T3 sequence (P19438 30-455): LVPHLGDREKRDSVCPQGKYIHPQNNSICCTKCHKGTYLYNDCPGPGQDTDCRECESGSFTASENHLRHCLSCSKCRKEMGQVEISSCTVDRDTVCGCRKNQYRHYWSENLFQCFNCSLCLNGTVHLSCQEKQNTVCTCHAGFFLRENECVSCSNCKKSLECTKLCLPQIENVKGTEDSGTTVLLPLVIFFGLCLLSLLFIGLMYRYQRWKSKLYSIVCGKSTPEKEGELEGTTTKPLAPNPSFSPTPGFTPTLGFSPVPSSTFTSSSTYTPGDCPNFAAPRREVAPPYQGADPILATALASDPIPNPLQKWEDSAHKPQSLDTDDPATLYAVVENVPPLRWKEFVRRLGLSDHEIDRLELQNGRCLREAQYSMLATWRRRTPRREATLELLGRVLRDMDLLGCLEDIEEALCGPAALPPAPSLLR
How it was run: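 IC50 from a 4-parameter logistic fit of secreted luciferase luminescence (QUANTI-Luc), normalised to min/max controls. Reporter THP-1 cells were exposed to peptides for 1 h at 37 °C before 10 ng/mL TNFα (final) was added overnight (16–18 h).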

SMILES	Kd [1]	Kd (human TNFR2 ECD protein)	IC50 [2]
CN1CC(=O)N[C@@H](Cc2c[nH]c3ccccc23)C(=O)N[C@H](C(N)=O)CSCC(=O)N[C@@H](CCCCN)C(=O)N[C@@H](Cc2ccc(O)cc2)C(=O)N[C@@H](CO)C(=O)N[C@@H](Cc2c[nH]c3ccccc23)C(=O)N2CCC[C@@H]2C(=O)N[C@@H](CCCNC(N)=O)C(=O)N[C@@H](Cc2ccncc2)C(=O)N[C@@H](Cc2c[nH]c3ccccc23)C(=O)N[C@@](C)(CO)C(=O)N[C@@H](Cc2ccc(C(=O)O)cc2)C(=O)N[C@@H](Cc2ccc(O)cc2)C1=O [SEQ ID NO. 256] ({CH2CO}-KYSW[dP][Cit][4Pal]W[αMeS][Phe(4-COOH)]Y[Sar]WC-NH2; thioether N-14)	1.4 nM	> 1000 nM	6.1 nM
CCCC[C@@H]1NC(=O)[C@@H]2CC[C@@H](C2)NC(=O)[C@H]([C@@H](C)c2c[nH]c3c(OC)cccc23)NC(=O)CN(C)C(=O)[C@H](Cc2ccc(O)cc2)NC(=O)[C@H](Cc2ccc(C(=O)O)cc2)NC(=O)[C@](C)(CO)NC(=O)[C@H](Cc2c[nH]c3c(Cl)cccc23)NC(=O)[C@H](Cc2ccncc2)NC(=O)[C@H](CC(N)=O)NC(=O)[C@H](CCC(=O)O)N(C)C(=O)[C@H](Cc2c[nH]c3c(Cl)cccc23)NC(=O)[C@@H]2CNCCN2C(=O)[C@H](Cc2ccncc2)NC1=O [SEQ ID NO. 262] (cyclo([4Pal][Trp(7-Cl)][αMeS][Phe(4-COOH)]Y[Sar][Trp(βS-Me,7-OMe)][X1][Nle][4Pal][Pip(4-aza)][Trp(7-Cl)][NMeE]N))	0.24 nM	> 1000 nM	1.2 nM
CN1CC(=O)N[C@@H](Cc2c[nH]c3cccc(Cl)c23)C(=O)N[C@H](C(N)=O)CSCC(=O)N[C@@H](CCC(N)=O)C(=O)N[C@@H](Cc2ccncc2)C(=O)N[C@@H](CO)C(=O)N[C@@H](Cc2c[nH]c3ncccc23)C(=O)N(C)[C@@H](CCC(=O)O)C(=O)N[C@@H](CC(N)=O)C(=O)N[C@@H](Cc2ccncc2)C(=O)N[C@@H](Cc2c[nH]c3c(Cl)cccc23)C(=O)N[C@@](C)(CO)C(=O)N[C@@H](Cc2ccc(C(=O)O)cc2)C(=O)N[C@@H](Cc2ccc(O)cc2)C1=O [SEQ ID NO. 239] ({CH2CO}-Q[4Pal]S[Trp(7-aza)][NMeE]N[4Pal][Trp(7-Cl)][αMeS][Phe(4-COOH)]Y[Sar][Trp(4-Cl)]C-NH2; thioether N-14)	0.3 nM	> 1000 nM	1.4 nM
CCCC[C@@H]1NC(=O)[C@@H]2CC[C@@H](C2)NC(=O)[C@H]([C@@H](C)c2c[nH]c3c(OC)cccc23)NC(=O)CN(C)C(=O)[C@H](Cc2cccc(C(=O)O)c2)NC(=O)[C@H](Cc2ccc(C(N)=O)cc2)NC(=O)[C@](C)(CO)NC(=O)[C@H](Cc2c[nH]c3c(Cl)cccc23)NC(=O)[C@H](Cc2ccc(C(=O)O)cc2)NC(=O)[C@H](CC(N)=O)NC(=O)[C@H]2C[C@H](O)CN2C(=O)[C@H](Cc2c[nH]c3ccccc23)NC(=O)[C@@H]2CC[C@@H](O)CN2C(=O)[C@H](Cc2ccncc2)NC1=O [SEQ ID NO. 17] (cyclo([4Pal][Pip(5R-OH)]W[dHyp]N[Phe(4-COOH)][Trp(7-Cl)][αMeS][Phe(4-CONH2)][Phe(3-COOH)][Sar][Trp(βS-Me,7-OMe)][X1][Nle]))	0.04 nM	> 1000 nM	0.8 nM
CCCC[C@@H]1NC(=O)[C@@H]2CC[C@@H](C2)NC(=O)[C@H]([C@@H](C)c2c[nH]c3c(OC)cccc23)NC(=O)CN(C)C(=O)[C@H](Cc2ccc(C(=O)O)cc2)NC(=O)[C@H](Cc2ccc(C(N)=O)cc2)NC(=O)[C@](C)(CO)NC(=O)[C@H](Cc2c[nH]c3c(C#N)cccc23)NC(=O)[C@H](Cc2ccncc2)NC(=O)[C@H](CC(N)=O)NC(=O)CN(CCc2nnco2)C(=O)[C@H](Cc2c[nH]c3ncccc23)NC(=O)[C@@H]2CC[C@@H](O)CN2C(=O)[C@H](Cc2ccncc2)NC1=O [SEQ ID NO. 121] (cyclo([4Pal][Trp(7-CN)][αMeS][Phe(4-CONH2)][Phe(4-COOH)][Sar][Trp(βS-Me,7-OMe)][X1][Nle][4Pal][Pip(5R-OH)][Trp(7-aza)][X31]N))	0.02 nM	> 1000 nM	0.9 nM
